The target in one data set is T1, Jack bean α-mannosidase (Canavalia ensiformis, UniProt C0HJB3).
T1 construct: purchased Sigma-Aldrich Co
T1 sequence (C0HJB3 1-981): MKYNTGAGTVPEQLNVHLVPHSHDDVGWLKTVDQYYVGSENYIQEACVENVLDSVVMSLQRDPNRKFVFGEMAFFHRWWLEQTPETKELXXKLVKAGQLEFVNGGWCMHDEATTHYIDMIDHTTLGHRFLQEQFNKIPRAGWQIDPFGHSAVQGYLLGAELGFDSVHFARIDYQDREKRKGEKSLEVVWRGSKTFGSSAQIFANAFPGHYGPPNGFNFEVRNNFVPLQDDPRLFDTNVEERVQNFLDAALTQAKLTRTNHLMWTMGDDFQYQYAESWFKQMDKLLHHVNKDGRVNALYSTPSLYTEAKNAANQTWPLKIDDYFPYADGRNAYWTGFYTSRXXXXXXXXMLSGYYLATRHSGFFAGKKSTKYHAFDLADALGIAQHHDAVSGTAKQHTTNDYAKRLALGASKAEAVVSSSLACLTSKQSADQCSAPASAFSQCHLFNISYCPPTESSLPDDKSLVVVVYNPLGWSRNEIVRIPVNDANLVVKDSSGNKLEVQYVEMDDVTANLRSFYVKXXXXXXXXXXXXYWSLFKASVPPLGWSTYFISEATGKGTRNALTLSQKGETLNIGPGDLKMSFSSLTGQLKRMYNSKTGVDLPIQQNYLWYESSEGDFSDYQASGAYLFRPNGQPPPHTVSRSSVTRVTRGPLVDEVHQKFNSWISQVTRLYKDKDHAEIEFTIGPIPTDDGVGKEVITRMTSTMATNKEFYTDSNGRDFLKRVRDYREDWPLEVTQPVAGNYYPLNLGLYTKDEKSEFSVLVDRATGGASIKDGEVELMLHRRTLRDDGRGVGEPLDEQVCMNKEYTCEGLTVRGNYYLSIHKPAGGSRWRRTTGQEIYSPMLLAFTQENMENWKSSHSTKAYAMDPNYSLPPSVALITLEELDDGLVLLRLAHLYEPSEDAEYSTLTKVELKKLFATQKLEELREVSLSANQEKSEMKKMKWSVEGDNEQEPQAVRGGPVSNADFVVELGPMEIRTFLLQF
Nature of the data set: Glycosidase inhibition, Jack bean α-mannosidase. The class given is biochemical. From the text: Glycosidase modulation studies need to explore selectivity as well as potency. Our drugs and controls are therefore screened against a panel of glycosidases in methanol (Table 1) to identify the glycosidase-related disease area(s), selectivity profile, and potency of biological action for each drug. The presence of organic boron covalently bonded to the drug structure also grants a reduced toxicity profile. Following the glycosidase inhibition range recommendations, an IC50 value >250 μm denotes weak inhibition, 100–249 μm denotes moderate inhibition, 10–99 μm good inhibition, 0.1–9 μm potent inhibition, and <0.1 μm very potent inhibition. […] Our boronated D-galactose 7 represents a novel lead in glycosidase inhibition.
The glycosidases screened are the following: rice α-glucosidase, yeast α-glucosidase, Bacillus α-glucosidase, rat intestinal maltase α-glucosidase, almond β-glucosidase, bovine liver β-glucosidase, coffee beans α-galactosidase, bovine liver β-galactosidase, Jack bean α-mannosidase, snail β-mannosidase, Penicillium decumbens α-L-rhamnosidase, bovine kidney α-L-fucosidase, Eschierichia coli β-glucuronidase, bovine liver β-glucuronidase, porcine kidney trehalase, Aspergillus niger amyloglucosidase, and bovine kidney N-acetyl-β-glucosaminidase. The disease areas for each glycosidase are summarized in [1].
The enzymes α-glucosidase (from yeast), β-glucosidases (from almond and bovine liver), α-galactosidase (from coffee beans), β-galactosidase (from bovine liver), α-mannosidase (from Jack bean), β-mannosidase (from snail), α-L-rhamnosidase (from Penicillium decumbens), α-L-fucosidase (from bovine kidney), trehalase (from porcine kidney), β-glucuronidases (from E. coli and bovine liver), amyloglucosidase (from A. niger), para-nitrophenyl glycosides, and various disaccharides were purchased from Sigma-Aldrich Co.
Brush border membranes were prepared from the rat small intestine according to the method of Kessler et al. and were assayed at pH 6.8 for rat intestinal maltase using maltose. For rat intestinal maltase, porcine kidney trehalase, and A. niger amyloglucosidase activities, the reaction mixture contained 25 mM maltose and the appropriate amount of enzyme, and the incubations were performed for 10–30 min at 37 °C. The reaction was stopped by heating at 100 °C for 3 min. After centrifugation (600 g; 10 min), the resulting reaction mixture was added to the Glucose CII-test Wako (Wako Pure Chemical Ind., Osaka, Japan). The absorbance at 505 nm was measured to determine the amount of the released D-glucose. Other glycosidase activities were determined using an appropriate para-nitrophenyl glycoside as substrate at the optimum pH of each enzyme. The reaction mixture contained 2 mM of the substrate and the appropriate amount of enzyme. The reaction was stopped by the addition of 400 mM Na2CO3. The released para-nitrophenol was measured spectrometrically at 400 nm. All reactions run in methanol.

The next data set concerns U87 (glioblastoma). In words: Cancer screening (MTT growth inhibition), U87. The class given is cell-based. The settings on record: 72 h; for inhibition at 25 µM / Percentage (%) cell growth inhibition: 25 µM of drug, n = 3, mean ± SEM; for inhibition at 25 µM: read-out: Percentage (%) cell growth inhibition. How it is done:
All test agents were prepared as stock solutions (20 mM) in dimethyl sulfoxide (DMSO) and stored at −20 °C. Cell lines used in the study included: HT29 (colorectal carcinoma), U87 and SJ-G2 (glioblastoma), MCF-7 (breast carcinoma), A2780 (ovarian carcinoma), H460 (lung carcinoma), A431 (skin carcinoma), Du145 (prostate carcinoma), BE2-C (neuroblastoma), MiaPaCa-2 (pancreatic carcinoma), SMA560 (spontaneous murine astrocytoma), and ADDP (Cis Res Ovarian), together with one non-tumor-derived normal breast cell line (MCF10A). All cell lines were incubated in a humidified atmosphere with 5 % CO2 at 37 °C. The cancer cell lines were maintained in Dulbecco’s modified Eagle’s medium (DMEM; Sigma, Australia) supplemented with fetal bovine serum (10%), sodium pyruvate (10 mM), penicillin (100 IUmL^−1), streptomycin (100 µg mL^−1), and L-glutamine (2 mM).
Growth inhibition was determined by plating cells in duplicate in medium (100 µL) at a density of 2500–4000 cells per well in 96-well plates. On day 0 (24 h after plating), when the cells are in logarithmic growth, medium (100 µL) with or without the test agent was added to each well. After 72 h of drug exposure, growth inhibitory effects were evaluated using the (3-(4,5-dimethyltiazol-2-yl)-2,5-diphenyltetrazolium bromide) (MTT) assay and absorbance read at 540 nm. The percentage growth inhibition was calculated at a fixed concentration of 25 µM, based on the difference between the optical density values on day 0 and those at the end of drug exposure. Each data point is the mean ± the standard error of the mean (SEM) calculated from three replicates, which were performed on separate occasions and in separate cell line passages.

The nature of the next data set: Solubility in water. The class given is physicochemical.
Where [1] appears, read: at 100 μM, in methanol, read-out: inhibition %.
Setting [2] is: at 100 μM, read-out: NI: No inhibition.

Like-named read-outs stand apart in the source and are kept apart here.

Broadly, the inhibition is the change of the read-out against control, counted positive when it falls. `N[C@@H](Cc1ccc(B(O)O)cc1)C(=O)O` [BPA, 4-borono-L-phenylalanine]: the values for the inhibition at 100 µM on Jack bean α-mannosidase (setting [1]) and at Jack bean α-mannosidase (setting [2]) were 1.1% and < 50%, respectively. Moreover, in the data set with U87 (glioblastoma), the inhibition at 25 µM was < 0%.
Take `CC1(C)OCC(C2OC3OC(C)(C)OC3C2[B-]23OCC[NH+]2CCO3)O1` [Compound 6, 3-Deoxy-3-Boronodiethanolamine-1,2:5,6-Di-O-isopropylidene-α-D-galactofuranose]: the inhibition at 100 µM on Jack bean α-mannosidase (setting [1]) was 0%; on Jack bean α-mannosidase (setting [2]) it was < 50%. The inhibition at 25 µM with U87 (glioblastoma) turned out to be 8 ± 4%. In the data set “Solubility in water”, the solubility in water result was “soluble in water”.
For `OCC1OC(O)C(O)C(B(O)O)C1O` [Compound 7, 3-Boronic-3-Deoxy-D-galactose], the inhibition at 1000 µM at Jack bean α-mannosidase (at 1000 μM, in methanol, read-out: inhibition %) was 0%; on Jack bean α-mannosidase (at 1000 μM, read-out: NI: No inhibition) it was < 50%. Further, in the data set with U87 (glioblastoma), the inhibition at 25 µM was -6 ± 3%. The GI50 with U87 (glioblastoma) (dose response, read-out: GI50 = Concentration that inhibits cell growth by 50%) was > 50 µM. Moreover, in the data set “Solubility in water”, the solubility in water result is on record as “soluble in water”.
In the case of `N[C@@H](Cc1ccc(B(O)O)cc1)C(=O)O` [^10B-BPA], the “NI: No inhibition” value at Jack bean α-mannosidase (at 100 μM) is given as “NI (No inhibition (less than 50% inhibition at 100 μM))”. On Jack bean α-mannosidase (at 100 μM, in methanol), this molecule yielded an inhibition % of 0%. The “Percentage (%) cell growth inhibition” value with U87 (glioblastoma) was <0%.
Regarding Borocaptate sodium [BSH], the “NI: No inhibition” value on Jack bean α-mannosidase (at 1000 μM) is recorded as “NI (No inhibition (less than 50% inhibition at 1000 μM))”. The molecule also came in with an inhibition % against Jack bean α-mannosidase (at 1000 μM, in methanol) of 7.9%. In the data set on U87 (glioblastoma), the “Percentage (%) cell growth inhibition” value is listed as <0%.

The values above are taken from PMC10254170, “Diastereoselective Synthesis of the Borylated D-Galactose Monosaccharide 3-Boronic-3-Deoxy-D-Galactose and Biological Evaluation in Glycosidase Inhibition and in Cancer for Boron Neutron Capture Therapy (BNCT)” (Molecules, 2023).
